Source: PubChem BioAssay (NCI)
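These data come from cells grown in 96-well plates and exposed to compound for 48 hours at five concentrations. GI50 is the concentration that inhibits growth by half. TGI denotes the concentration required for complete inhibition of growth.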

Assays:
Assay in all cases: inhibition of tumour cell growth, NCI panel, 48 h
UACC-257 melanoma = system: UACC-257 melanoma
NCI-H226 lung = system: NCI-H226 lung
SR leukemia = system: SR leukemia
SK-MEL-5 melanoma = system: SK-MEL-5 melanoma
OVCAR-5 ovarian = system: OVCAR-5 ovarian
MOLT-4 leukemia = system: MOLT-4 leukemia
DU-145 prostate = system: DU-145 prostate
HS 578T breast = system: HS 578T breast
MDA-MB-435 = system: MDA-MB-435
LOX IMVI melanoma = system: LOX IMVI melanoma
OVCAR-3 ovarian = system: OVCAR-3 ovarian
T-47D breast = system: T-47D breast
TK-10 renal = system: TK-10 renal
K-562 leukemia = system: K-562 leukemia
PC-3 prostate = system: PC-3 prostate
SK-MEL-28 melanoma = system: SK-MEL-28 melanoma
HOP-92 NSCLC = system: HOP-92 NSCLC
RPMI-8226 leukemia = system: RPMI-8226 leukemia
UACC-62 melanoma = system: UACC-62 melanoma
SF-539 CNS = system: SF-539 CNS
SN12C renal = system: SN12C renal
EKVX NSCLC = system: EKVX NSCLC
SF-268 CNS = system: SF-268 CNS
UO-31 renal = system: UO-31 renal
NCI-H23 lung = system: NCI-H23 lung
SF-295 CNS = system: SF-295 CNS
NCI-H460 lung = system: NCI-H460 lung
NCI-H522 lung = system: NCI-H522 lung
U251 CNS = system: U251 CNS
BT-549 breast = system: BT-549 breast
RXF 393 renal = system: RXF 393 renal
IGROV1 ovarian = system: IGROV1 ovarian
SW-620 colon = system: SW-620 colon
COLO 205 colon = system: COLO 205 colon
SNB-19 CNS = system: SNB-19 CNS
786-0 renal = system: 786-0 renal
MALME-3M melanoma = system: MALME-3M melanoma
HCC-2998 colon = system: HCC-2998 colon
MCF7 breast = system: MCF7 breast
HCT-116 colon = system: HCT-116 colon
HL-60(TB) leukemia = system: HL-60(TB) leukemia
A498 renal = system: A498 renal
NCI/ADR-RES ovarian = system: NCI/ADR-RES ovarian
MDA-MB-231 breast = system: MDA-MB-231 breast
CCRF-CEM leukemia = system: CCRF-CEM leukemia
KM12 colon = system: KM12 colon
HCT-15 colon = system: HCT-15 colon
SK-MEL-2 melanoma = system: SK-MEL-2 melanoma
OVCAR-4 ovarian = system: OVCAR-4 ovarian
A549 NSCLC = system: A549 NSCLC
SNB-75 CNS = system: SNB-75 CNS
HOP-62 NSCLC = system: HOP-62 NSCLC
HT29 colon = system: HT29 colon
M14 melanoma = system: M14 melanoma
OVCAR-8 ovarian = system: OVCAR-8 ovarian
SK-OV-3 ovarian = system: SK-OV-3 ovarian
ACHN renal = system: ACHN renal
CAKI-1 renal = system: CAKI-1 renal

For `c1ccc(-c2n(Cc3ccc4ccccc4n3)cc[n+]2Cc2ccc3ccccc3n2)cc1`, the GI50 (UACC-257 melanoma) was 1.01 µM, the TGI (UACC-257 melanoma) was 5.21 µM and the GI50 (NCI-H226 lung) was 1.76 µM. The TGI (NCI-H226 lung) was 9.72 µM, the GI50 (SR leukemia) was 1.29 µM and the TGI (SR leukemia) was 13.2 µM. It also gave a GI50 (SK-MEL-5 melanoma) of 0.542 µM, a TGI (SK-MEL-5 melanoma) of 1.85 µM and a GI50 (OVCAR-5 ovarian) of 5 µM. For the same compound, the TGI (OVCAR-5 ovarian) was 21.5 µM, the GI50 (MOLT-4 leukemia) was 4.24 µM and the TGI (MOLT-4 leukemia) was 17.2 µM. For the same compound, the GI50 (DU-145 prostate) was 4.29 µM, the TGI (DU-145 prostate) was 18.5 µM and the GI50 (HS 578T breast) was 2.76 µM. The TGI (HS 578T breast) was 14.3 µM, the GI50 (MDA-MB-435) was 1.8 µM and the TGI (MDA-MB-435) was 10.2 µM. For the same compound, the GI50 (LOX IMVI melanoma) was 2.35 µM, the TGI (LOX IMVI melanoma) was 10.8 µM and the GI50 (OVCAR-3 ovarian) was 1.05 µM. The TGI (OVCAR-3 ovarian) was 12.1 µM, the GI50 (T-47D breast) was 0.498 µM and the TGI (T-47D breast) was 7.77 µM. For the same compound, the GI50 (TK-10 renal) was 5.38 µM, the TGI (TK-10 renal) was 18.3 µM and the GI50 (K-562 leukemia) was 0.754 µM. It also gave a TGI (K-562 leukemia) of 13.6 µM, a GI50 (PC-3 prostate) of 2.64 µM and a TGI (PC-3 prostate) of 12.1 µM. For the same compound, the GI50 (SK-MEL-28 melanoma) was 0.983 µM, the TGI (SK-MEL-28 melanoma) was 12.9 µM and the GI50 (HOP-92 NSCLC) was 0.269 µM. For the same compound, the TGI (HOP-92 NSCLC) was 2.47 µM, the GI50 (RPMI-8226 leukemia) was 0.269 µM and the TGI (RPMI-8226 leukemia) was 5.09 µM. It also gave a GI50 (UACC-62 melanoma) of 0.675 µM, a TGI (UACC-62 melanoma) of 4.17 µM and a GI50 (SF-539 CNS) of 2.92 µM. For the same compound, the TGI (SF-539 CNS) was 13.2 µM, the GI50 (SN12C renal) was 2.25 µM and the TGI (SN12C renal) was 11.2 µM. For the same compound, the GI50 (EKVX NSCLC) was 2.91 µM, the TGI (EKVX NSCLC) was 31.4 µM and the GI50 (SF-268 CNS) was 3.32 µM. For the same compound, the TGI (SF-268 CNS) was 14.7 µM, the GI50 (UO-31 renal) was 12.6 µM and the TGI (UO-31 renal) was 39.2 µM. The GI50 (NCI-H23 lung) was 1.23 µM, the TGI (NCI-H23 lung) was 9.58 µM and the GI50 (SF-295 CNS) was 3.22 µM. For the same compound, the TGI (SF-295 CNS) was 14.5 µM, the GI50 (NCI-H460 lung) was 2.49 µM and the TGI (NCI-H460 lung) was 11.9 µM. The GI50 (NCI-H522 lung) was 1.92 µM, the TGI (NCI-H522 lung) was 8.72 µM and the GI50 (U251 CNS) was 2.66 µM. For the same compound, the TGI (U251 CNS) was 12.4 µM, the GI50 (BT-549 breast) was 1.65 µM and the TGI (BT-549 breast) was 8.48 µM. The GI50 (RXF 393 renal) was 2.8 µM, the TGI (RXF 393 renal) was 14 µM and the GI50 (IGROV1 ovarian) was 1.87 µM. For the same compound, the TGI (IGROV1 ovarian) was 16.4 µM, the GI50 (SW-620 colon) was 2.65 µM and the TGI (SW-620 colon) was 14.5 µM. The GI50 (COLO 205 colon) was 1.41 µM, the TGI (COLO 205 colon) was 4.05 µM and the GI50 (SNB-19 CNS) was 2.18 µM. For the same compound, the TGI (SNB-19 CNS) was 13.1 µM, the GI50 (786-0 renal) was 5.45 µM and the TGI (786-0 renal) was 18.5 µM. It also gave a GI50 (MALME-3M melanoma) of 1.57 µM, a TGI (MALME-3M melanoma) of 8.02 µM and a GI50 (HCC-2998 colon) of 1.93 µM. For the same compound, the TGI (HCC-2998 colon) was 11.7 µM, the GI50 (MCF7 breast) was 1.87 µM and the TGI (MCF7 breast) was 11.1 µM. For the same compound, the GI50 (HCT-116 colon) was 2.06 µM, the TGI (HCT-116 colon) was 11.4 µM and the GI50 (HL-60(TB) leukemia) was 0.399 µM. For the same compound, the TGI (HL-60(TB) leukemia) was 1.7 µM, the GI50 (A498 renal) was 1.81 µM and the TGI (A498 renal) was 10.1 µM. The GI50 (NCI/ADR-RES ovarian) was > 100 µM, the TGI (NCI/ADR-RES ovarian) was > 100 µM and the GI50 (MDA-MB-231 breast) was 1.69 µM. It also gave a TGI (MDA-MB-231 breast) of 8.58 µM, a GI50 (CCRF-CEM leukemia) of 2.9 µM and a TGI (CCRF-CEM leukemia) of 14.7 µM. It also gave a GI50 (KM12 colon) of 1.76 µM, a TGI (KM12 colon) of 10.5 µM and a GI50 (HCT-15 colon) of 20.2 µM. The TGI (HCT-15 colon) was 85.6 µM, the GI50 (SK-MEL-2 melanoma) was 1.96 µM and the TGI (SK-MEL-2 melanoma) was 5.96 µM. The GI50 (OVCAR-4 ovarian) was 0.709 µM, the TGI (OVCAR-4 ovarian) was 7.02 µM and the GI50 (A549 NSCLC) was 13.5 µM. For the same compound, the TGI (A549 NSCLC) was 51.1 µM, the GI50 (SNB-75 CNS) was 1.33 µM and the TGI (SNB-75 CNS) was 5.07 µM. For the same compound, the GI50 (HOP-62 NSCLC) was 5.66 µM, the TGI (HOP-62 NSCLC) was 20.8 µM and the GI50 (HT29 colon) was 2.39 µM. It also gave a TGI (HT29 colon) of 11.5 µM, a GI50 (M14 melanoma) of 2.35 µM and a TGI (M14 melanoma) of 11.5 µM. The GI50 (OVCAR-8 ovarian) was 3.25 µM, the TGI (OVCAR-8 ovarian) was 13.9 µM and the GI50 (SK-OV-3 ovarian) was 3.39 µM. The TGI (SK-OV-3 ovarian) was 11.8 µM.

With `c1ccc(-c2ccc(-c3ccc(C4=NCCN4)cc3)o2)cc1` the TGI (UACC-257 melanoma) was 4.89 µM, the TGI (NCI-H226 lung) was 6.15 µM and the TGI (SR leukemia) was 7.43 µM. The TGI (SK-MEL-5 melanoma) was 3.92 µM, the TGI (OVCAR-5 ovarian) was 7.9 µM and the TGI (MOLT-4 leukemia) was 4.59 µM. The TGI (DU-145 prostate) was 10.3 µM, the TGI (HS 578T breast) was 2.8 µM and the TGI (MDA-MB-435) was 3.84 µM. For the same compound, the TGI (ACHN renal) was 7.97 µM, the TGI (LOX IMVI melanoma) was 4.01 µM and the TGI (OVCAR-3 ovarian) was 18 µM. For the same compound, the TGI (T-47D breast) was 7.06 µM, the TGI (TK-10 renal) was 11.4 µM and the TGI (K-562 leukemia) was 3.44 µM. It also gave a TGI (PC-3 prostate) of 5.54 µM, a TGI (SK-MEL-28 melanoma) of 3.75 µM and a TGI (HOP-92 NSCLC) of 5.03 µM. It also gave a TGI (RPMI-8226 leukemia) of 2.88 µM, a TGI (UACC-62 melanoma) of 3.2 µM and a TGI (SF-539 CNS) of 4.4 µM. For the same compound, the TGI (CAKI-1 renal) was 5.36 µM, the TGI (SN12C renal) was 11.4 µM and the TGI (EKVX NSCLC) was 10.8 µM. For the same compound, the TGI (SF-268 CNS) was 8.4 µM, the TGI (UO-31 renal) was 3.14 µM and the TGI (NCI-H23 lung) was 17.5 µM. For the same compound, the TGI (SF-295 CNS) was 3.82 µM, the TGI (NCI-H522 lung) was 4.21 µM and the TGI (U251 CNS) was 3.93 µM. It also gave a TGI (BT-549 breast) of 17.3 µM, a TGI (RXF 393 renal) of 6.53 µM and a TGI (IGROV1 ovarian) of 7.52 µM. For the same compound, the TGI (SW-620 colon) was 4.42 µM, the TGI (COLO 205 colon) was 3.31 µM and the TGI (SNB-19 CNS) was 6.3 µM. The TGI (786-0 renal) was 3.1 µM, the TGI (MALME-3M melanoma) was 2.17 µM and the TGI (HCC-2998 colon) was 2.81 µM. The TGI (MCF7 breast) was 3.68 µM, the TGI (HCT-116 colon) was 3.42 µM and the TGI (HL-60(TB) leukemia) was 3.74 µM. It also gave a TGI (A498 renal) of 3.65 µM, a TGI (NCI/ADR-RES ovarian) of 19.7 µM and a TGI (MDA-MB-231 breast) of 3.89 µM. For the same compound, the TGI (CCRF-CEM leukemia) was 4.46 µM, the TGI (KM12 colon) was 4.43 µM and the TGI (HCT-15 colon) was 4.19 µM. It also gave a TGI (SK-MEL-2 melanoma) of 3.51 µM, a TGI (OVCAR-4 ovarian) of 15 µM and a TGI (A549 NSCLC) of 7.8 µM. It also gave a TGI (SNB-75 CNS) of 5.17 µM, a TGI (HOP-62 NSCLC) of 12.3 µM and a TGI (HT29 colon) of 4.94 µM. For the same compound, the TGI (M14 melanoma) was 3.1 µM, the TGI (OVCAR-8 ovarian) was 15.2 µM and the TGI (SK-OV-3 ovarian) was 11.5 µM.
